Experimental data reported in patent US20240092779A1, “USP1 INHIBITORS AND USES THEREOF” (Zentaur Therapeutics USA Inc., priority 2022, published 2024).

Tests used:
[1] = molecular target: T1, recombinant USP1/UAF1 enzyme complex (Homo sapiens, UniProt O94782); assay: Enzyme assay: deubiquitinase fluorometric assay with ubiquitin-Rhodamine substrate; assay type: biochemical; conditions: USP1/UAF1, Ub-Rho110 substrate, 2 hours preincubation, 1 hour reaction
T1 construct: purchased Biortus
Method: Enzymatic inhibitory potency of the compounds was assessed in a deubiquitinase fluorometric assay using ubiquitin-Rhodamine (Ub-Rho110, R&D Systems) as substrate and the recombinant USP1/UAF1 enzyme complex (Biortus). Assays were performed in a final volume of 12 μL using black 384-well plates (Corning #4514) containing 50 mM HEPES (pH 7.5, BioRoYee), 0.5 mM EDTA, 1 mM dithiothreitol, 0.1 mg/mL bovine serum albumin, 50 nM Ub-Rhol10, 0.004 nM USP1/UAF1, and series diluted compounds from 10 μM to 0.5 nM (10 dilution steps). Assay-ready plates containing 40 nL of Echo-dispensed compound in DMSO were reconstituted with 2 μL of ddH2O, then 5 μL of USP1/UAF1 enzyme mixture was added and preincubated at room temperature for 2 hours. Enzymatic reaction was initiated by the addition of […] substrate mixture and assay allowed to proceed for 1 hour at room temperature before quenching with 3 μL of 150 mM citric acid. Fluorescence signal was detected via TECAN SPARK with excitation at 485 nm and emission at 535 nm. Data analysis was done using GraphPad Prism8 and IC50 values were obtained by 4-parameter logistic curve fitting.
(§1) Certain compounds were tested in the assays.

[2] = system: HCC1806 Ub-PCNA (USP1); assay: USP1 Western Blot Protocol (HCC1806 Ub-PCNA); assay type: cell-based; conditions: HCC1806 cells, 4 hours
Excerpt: USP1 Western Blot Protocol (HCC1806 Ub-PCNA)
USP1 is a deubiquitinase that catalyze the hydrolysis of iso-peptide bond between ubiquitin and the substrate proteins. Inhibition of USP1 activity results in accumulation of mono-ubiquitinated substrate such as Ub-PCNA. A cell assay was set up to determine the cellular potency of USP1 compounds by monitoring the accumulation of Ub-PCNA. The signal intensity was detected by a specific Ub-PCNA antibody through Western-blot analysis.
The assay was initiated by seeding HCC1806 cells (ATCC, CRL-2335) into 6-well plates (Corning, 3516), with a seeding density of 3×10^5 cells per well and 2 mL RPMI 1640 culture medium (Gibco, 11875119). The plates were incubated overnight at 37° C. and 5% CO2. Compounds, solubilized in DMSO (Solarbio, D8371) as 1 mM stock solution, were diluted in 4-fold steps for 5-cencentration point dose response plus a no-compound DMSO control. Diluted compounds (2 μL) were transferred into assay wells (with a final DMSO concentration of −0.1%) and the resulted assay plates incubated at 37° C. and 5% CO2 for 4 hours. After aspiration of culture medium, 100 μL of 4° C. RIPA lysis buffer (Boston BioProducts, BP-115D) supplemented with vendor recommended concentrations of protease (Roche, 4693116001) and phosphatase (Roche, 4906837001) inhibitor, was added to each well and incubated for 10 minutes on the ice. Cells were scrapped loose from the bottom of well with a scraper (Corning, 3008), transferred into a 600 μL EP tube, sonicated using Ultrasound (Qsonica, Q800R3, with 30% energy, 5-second pulse on/off cycles at 4° C., for total 2 minutes), centrifuged 13,000 rpm for 15 minutes at 4° C., and then the supernatant transferred to a new 600 μL EP tube. The total protein concentration was determined using BCA kit following vendor recommended protocol (Solarbio, PC0020-500). Loading samples were prepared by diluting the total protein concentration to 1.5 μg/μL with 5 X NuPAGE SDS loading buffer (Beyotime, P0015L) and RIPA lysis buffer, and boiling at 100° C. for 5 minutes.
15 μg protein from each sample was loaded onto NuPAGE® Novex 4-12% Bis-Tris Midi Gel, 26 W (Invitrogen, WG1403BOX) and electrophoresis was run at 80 V for 30 minutes and 120 V till the end using 1x NuPAGE® MOPS SDS Running Buffer (Novex, NP0001). The gel was then transferred to nitrocellulose membrane using the dry transfer system (iBlot 2 Transfer Stacks, nitrocellulose, D323001) with a program consisting of 20 V for 1 minute, 23 V for 4 minutes and 25 V for 2 minutes. After the membrane was blocked with 5% BSA (Solarbio, A8020) in 1X TBST (CST, 9997S) for 1 hour at room temperature, specific antibodies (Ubiquityl-PCNA antibody (CST, 13439) at 1:500 dilution, PCNA antibody (Santa Cruz, sc-56) at 1:1000 dilution, and GAPDH (CST, 5174) at 1:2000 dilution in 1 X TBST containing 1% BSA) were added and incubated at room temperature for 1.5 hours. After washing the Nitrocellulose membranes with 1 X TBST for 3 times, 10 minutes each time at room temperature, fluorescently labeled secondary antibodies (anti-rabbit IgG, Licor, 926-32211; anti-mouse IgG, LI-COR, 926-68070) at 1:5000 dilution in 1 X TBST containing 1% BSA were added and incubated for 1 hour at room temperature in the dark. The membranes were then rinsed with 1 X TBST and immersed in the RO water. Imaging of band intensity was acquired with Li—COR imaging system (Li—COR, Odyssey clx ES).
Percentage of USP1 inhibition (% Vehicle) was calculated by using following equation examining Ub-PCNA upregulation:
And IC50 was calculated using four-parameter logistic fitting program • Y=Bottom+(Top-Bottom)/(1+10 {circumflex over (()}(LogIC50−X)*Hill Slope)) • X=Log of dose or concentration
as §1

[3] = system: MDA-MB-436 cells; assay: CTG Protocol (MDA-MB-436 GI50), antiproliferative activity; assay type: cell-based, human; conditions: MDA-MB-436 cells (BRCA1 mutation), 7-day incubation, CellTiter-Glo
Method in brief: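 BRCA1-mutant MDA-MB-436 cells were seeded at 1000 cells/well in DMEM, left overnight, then exposed to a 9-point, 3-fold compound series for 7 days at 37 °C, 5% CO2. Viability was read by CellTiter-Glo luminescence. % inhibition was plotted against concentration to derive GI50.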

T1 sequence (O94782 whole entry): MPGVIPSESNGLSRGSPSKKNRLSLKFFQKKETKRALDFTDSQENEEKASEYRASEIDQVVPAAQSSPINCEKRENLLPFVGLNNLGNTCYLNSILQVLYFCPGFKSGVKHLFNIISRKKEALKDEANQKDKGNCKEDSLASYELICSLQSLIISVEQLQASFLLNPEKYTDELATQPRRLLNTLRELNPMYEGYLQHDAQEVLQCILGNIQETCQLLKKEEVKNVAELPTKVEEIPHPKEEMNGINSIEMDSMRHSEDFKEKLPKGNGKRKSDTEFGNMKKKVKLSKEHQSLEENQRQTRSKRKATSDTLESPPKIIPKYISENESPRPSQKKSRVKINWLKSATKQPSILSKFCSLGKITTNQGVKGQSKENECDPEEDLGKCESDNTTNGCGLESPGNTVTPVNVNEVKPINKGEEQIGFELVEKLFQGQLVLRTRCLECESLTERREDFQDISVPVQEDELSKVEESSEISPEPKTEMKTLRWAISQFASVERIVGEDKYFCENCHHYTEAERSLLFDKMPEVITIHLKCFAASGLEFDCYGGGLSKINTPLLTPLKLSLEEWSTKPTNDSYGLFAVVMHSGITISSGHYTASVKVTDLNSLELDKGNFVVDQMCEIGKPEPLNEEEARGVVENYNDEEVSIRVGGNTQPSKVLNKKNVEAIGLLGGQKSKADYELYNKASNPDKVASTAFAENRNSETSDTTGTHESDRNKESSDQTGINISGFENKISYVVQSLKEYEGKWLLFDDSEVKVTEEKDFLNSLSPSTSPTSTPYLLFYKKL
T1 sequence (Q8TAF3 whole entry partner): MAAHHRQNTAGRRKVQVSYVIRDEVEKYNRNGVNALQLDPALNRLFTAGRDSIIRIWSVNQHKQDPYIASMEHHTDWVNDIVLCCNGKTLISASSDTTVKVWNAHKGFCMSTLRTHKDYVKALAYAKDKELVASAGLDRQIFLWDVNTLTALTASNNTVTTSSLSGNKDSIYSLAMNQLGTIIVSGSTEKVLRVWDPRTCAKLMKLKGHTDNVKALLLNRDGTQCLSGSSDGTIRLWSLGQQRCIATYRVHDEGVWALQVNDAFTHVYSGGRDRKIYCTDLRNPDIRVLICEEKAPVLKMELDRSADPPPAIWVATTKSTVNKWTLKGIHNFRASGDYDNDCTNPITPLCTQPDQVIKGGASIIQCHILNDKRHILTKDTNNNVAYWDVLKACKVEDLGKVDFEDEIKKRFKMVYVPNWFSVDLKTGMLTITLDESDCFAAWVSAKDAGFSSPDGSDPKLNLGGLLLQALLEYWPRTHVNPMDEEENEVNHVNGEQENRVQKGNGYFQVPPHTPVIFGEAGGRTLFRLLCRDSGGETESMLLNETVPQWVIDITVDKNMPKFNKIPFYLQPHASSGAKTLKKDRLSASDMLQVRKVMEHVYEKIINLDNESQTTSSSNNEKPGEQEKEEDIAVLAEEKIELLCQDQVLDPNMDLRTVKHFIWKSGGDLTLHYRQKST

SMILES	IC50 [1] [nM]	IC50 ([2]; Homo sapiens) [nM]	GI50 ([3]; Homo sapiens, 168 h) [nM]	IC50 [2] [nM]	GI50 [3] [nM]
CC(C)n1ncc(Cl)c1-c1ncc2ccc(=O)n(Cc3ccc(-c4nc(C(F)(F)F)cn4C)cc3)c2n1 [Compound I-44, 2-(4-Chloro-2-Isopropylpyrazol-3-Yl)-8-({4-[1-Methyl-4-(Trifluoromethyl)Imidazol-2-Yl]Phenyl}Methyl)Pyrido[2,3-d]Pyrimidin-7-One]	10 to 100	10 to 100	10 to 100	–	–
COc1ncnc(C2CC2)c1-c1ncc2ccc(=O)n(Cc3ccc(-c4ncccc4C)cc3)c2n1 [Compound 74, 2-(4-cyclopropyl-6-methoxypyrimidin-5-yl)-8-{[4-(3-methylpyridin-2-yl)phenyl]methyl}pyrido[2,3-d]pyrimidin-7-one]	10 to 100	10 to 100	10 to 100	–	–
COc1ncnc(C)c1-c1ncc2ccc(=O)n(Cc3ccc(-c4nc(C(F)(F)F)cn4C)cc3)c2n1 [Compound I-46, 2-(4-Methoxy-6-Methylpyrimidin-5-Yl)-8-({4-[1-Methyl-4-(Trifluoromethyl)Imidazol-2-Yl]Phenyl}Methyl)Pyrido[2,3-d]Pyrimidin-7-One]	100 to 1000	100 to 1000	100 to 1000	–	–
COc1cc(Cn2c(=O)ccc3cnc(-c4c(OC)ncnc4C4CC4)nc32)cc(F)c1-c1nc(C(F)(F)F)cn1C [Compound 73, 2-(4-Cyclopropyl-6-Methoxypyrimidin-5-Yl)-8-({3-Fluoro-5-Methoxy-4-[1-Methyl-4-(Trifluoromethyl)Imidazol-2-Yl]Phenyl}Methyl)Pyrido[2,3-d]Pyrimidin-7-One]	10 to 100	10 to 100	10 to 100	–	–
COc1ncnc(C2CC2)c1-c1ncc2ccc(=O)n(Cc3ccc(-c4nc(F)ccc4OC(C)C)cc3)c2n1 [Compound 76, 2-(4-cyclopropyl-6-methoxypyrimidin-5-yl)-8-{[4-(6-fluoro-3-isopropoxypyridin-2-yl)phenyl]methyl}pyrido[2,3-d]pyrimidin-7-one]	10 to 100	10 to 100	10 to 100	–	–
COc1ncnc(C2CC2)c1-c1ncc2ccc(=O)n(Cc3ccc(-c4cncc(C(F)(F)F)n4)cc3)c2n1 [Compound I-51, 2-(4-cyclopropyl-6-methoxypyrimidin-5-yl)-8-({4-[6-(trifluoromethyl)pyrazin-2-yl]phenyl}methyl)pyrido[2,3-d]pyrimidin-7-one]	100 to 1000	100 to 1000	100 to 1000	–	–
COc1ncnc(C2CC2)c1-c1ncc2ccc(=O)n(Cc3ccc(-c4nc(C(F)(F)F)cn4C)cc3)c2c1F [Compound I-50, 7-(4-cyclopropyl-6-methoxypyrimidin-5-yl)-8-fluoro-1-({4-[1-methyl-4-(trifluoromethyl)imidazol-2-yl]phenyl}methyl)-1,6-naphthyridin-2-one]	10 to 100	10 to 100	10 to 100	–	–
COc1ncnc(C2CC2)c1-c1ncc2cc(CN3CCN(C)CC3)c(=O)n(Cc3ccc(-c4nc(C(F)(F)F)cn4C)cc3)c2n1 [Compound 55, 2-(4-cyclopropyl-6-methoxypyrimidin-5-yl)-8-({4-[1-methyl-4-(trifluoromethyl)imidazo]-2-yl]phenylmethyl)-6-[(4-methylpiperazin-1-yl)methyl]pyrido[2,3-d]pyrimidin-7-one]	10 to 100	–	–	10 to 100	10 to 100
COc1ncnc(C2CC2)c1-c1ncc2ccc(=O)n(Cc3ccc(-c4ncccc4F)cc3)c2n1 [Compound 65, 2-(4-cyclopropyl-6-methoxypyrimidin-5-yl)-8-{[4-(3-fluoropyridin-2-yl)phenyl]methyl}pyrido[2,3-d]pyrimidin-7-one]	10 to 100	> 1000	100 to 1000	–	–
Cc1ncnc(C2CC2)c1-c1ncc2ccc(=O)n(Cc3ccc(-c4nc(C(F)(F)F)cn4C)cc3)c2n1 [Compound I-49, 2-(4-Cyclopropyl-6-Methylpyrimidin-5-Yl)-8-({4-[1-Methyl-4-(Trifluoromethyl)Imidazol-2-Yl]Phenyl}Methyl)Pyrido[2,3-d]Pyrimidin-7-One]	10 to 100	100 to 1000	100 to 1000	–	–

Continued, values first:

IC50 [1] [nM]	IC50 ([2]; Homo sapiens) [nM]	GI50 ([3]; Homo sapiens, 168 h) [nM]	IC50 [2] [nM]	GI50 [3] [nM]	SMILES
10 to 100	10 to 100	–	–	–	COc1ncnc(C2CC2)c1-c1ncc2ccc(=O)n(Cc3ccc(-c4nc(C(F)(F)F)cn4CCO)cc3)c2n1 [Compound 60, 2-(4-cyclopropyl-6-methoxypyrimidin-5-yl)-8-({4-[1-(2-hydroxyethyl)-4-(trifluoromethyl)imidazol-2-yl]phenyl}methyl)pyrido[2,3-d]pyrimidin-7-one]
10 to 100	100 to 1000	10 to 100	–	–	COc1ncnc(C2CC2)c1-c1ncc2cc(CN3CCNCC3)c(=O)n(Cc3ccc(-c4nc(C(F)(F)F)cn4C)cc3)c2n1 [Compound 54, 2-(4-cyclopropyl-6-methoxypyrimidin-5-yl)-8-({4-[1-methyl-4-(trifluoromethyl)imidazol-2-yl]phenyl}methyl)-6-(piperazin-1-ylmethyl)pyrido[2,3-d]pyrimidin-7-one]
10 to 100	10 to 100	10 to 100	–	–	COc1ncnc(C2CC2)c1-c1ncc2ccc(=O)n(Cc3ccc(-c4nc(C(F)(F)F)cn4C4COC4)cc3)c2n1 [Compound 59, 2-(4-cyclopropyl-6-methoxypyrimidin-5-yl)-8-({4-[1-(oxetan-3-yl)-4-(trifluoromethyl)imidazol-2-yl]phenyl}methyl)pyrido[2,3-d]pyrimidin-7-one]
10 to 100	100 to 1000	10 to 100	–	–	COc1ncnc(C2CC2)c1-c1ncc2ccc(=O)n(Cc3ccc(-c4ncccc4N4CCN(C)CC4)cc3)c2n1 [Compound 85, 2-(4-cyclopropyl-6-methoxypyrimidin-5-yl)-8-({4-[3-(4-methylpiperazin-1-yl)pyridin-2-yl]phenyl}methyl)pyrido[2,3-d]pyrimidin-7-one]
10 to 100	10 to 100	10 to 100	–	–	COc1ncnc(OC)c1-c1ncc2ccc(=O)n(Cc3ccc(-c4nc(C(F)(F)F)cn4C)cc3)c2n1 [Compound I-47, 2-(4,6-Dimethoxypyrimidin-5-Yl)-8-({4-[1-Methyl-4-(Trifluoromethyl)Imidazol-2-Yl]Phenyl}Methyl)Pyrido[2,3-d]Pyrimidin-7-One]
